Laboratory results reported in publication PMC6273769, “Screening of Potential Xanthine Oxidase Inhibitors in Gnaphalium hypoleucum DC. by Immobilized Metal Affinity Chromatography and Ultrafiltration-Ultra Performance Liquid Chromatography-Mass Spectrometry” (Molecules, 2016).
Like-named read-outs stand apart in the source and are kept apart here.

How the values were obtained:
xanthine oxidase [1] = target: T1, xanthine oxidase (Bos taurus, UniProt P80457); assay: XO activity assay (uric acid absorbance at […] nm) with Lineweaver-Burk kinetics (Ki […]); also retained by XO in ultrafiltration UPLC-MS; assay type: biochemical
T1 construct: gene XDH
T1 sequence (P80457 2-1332): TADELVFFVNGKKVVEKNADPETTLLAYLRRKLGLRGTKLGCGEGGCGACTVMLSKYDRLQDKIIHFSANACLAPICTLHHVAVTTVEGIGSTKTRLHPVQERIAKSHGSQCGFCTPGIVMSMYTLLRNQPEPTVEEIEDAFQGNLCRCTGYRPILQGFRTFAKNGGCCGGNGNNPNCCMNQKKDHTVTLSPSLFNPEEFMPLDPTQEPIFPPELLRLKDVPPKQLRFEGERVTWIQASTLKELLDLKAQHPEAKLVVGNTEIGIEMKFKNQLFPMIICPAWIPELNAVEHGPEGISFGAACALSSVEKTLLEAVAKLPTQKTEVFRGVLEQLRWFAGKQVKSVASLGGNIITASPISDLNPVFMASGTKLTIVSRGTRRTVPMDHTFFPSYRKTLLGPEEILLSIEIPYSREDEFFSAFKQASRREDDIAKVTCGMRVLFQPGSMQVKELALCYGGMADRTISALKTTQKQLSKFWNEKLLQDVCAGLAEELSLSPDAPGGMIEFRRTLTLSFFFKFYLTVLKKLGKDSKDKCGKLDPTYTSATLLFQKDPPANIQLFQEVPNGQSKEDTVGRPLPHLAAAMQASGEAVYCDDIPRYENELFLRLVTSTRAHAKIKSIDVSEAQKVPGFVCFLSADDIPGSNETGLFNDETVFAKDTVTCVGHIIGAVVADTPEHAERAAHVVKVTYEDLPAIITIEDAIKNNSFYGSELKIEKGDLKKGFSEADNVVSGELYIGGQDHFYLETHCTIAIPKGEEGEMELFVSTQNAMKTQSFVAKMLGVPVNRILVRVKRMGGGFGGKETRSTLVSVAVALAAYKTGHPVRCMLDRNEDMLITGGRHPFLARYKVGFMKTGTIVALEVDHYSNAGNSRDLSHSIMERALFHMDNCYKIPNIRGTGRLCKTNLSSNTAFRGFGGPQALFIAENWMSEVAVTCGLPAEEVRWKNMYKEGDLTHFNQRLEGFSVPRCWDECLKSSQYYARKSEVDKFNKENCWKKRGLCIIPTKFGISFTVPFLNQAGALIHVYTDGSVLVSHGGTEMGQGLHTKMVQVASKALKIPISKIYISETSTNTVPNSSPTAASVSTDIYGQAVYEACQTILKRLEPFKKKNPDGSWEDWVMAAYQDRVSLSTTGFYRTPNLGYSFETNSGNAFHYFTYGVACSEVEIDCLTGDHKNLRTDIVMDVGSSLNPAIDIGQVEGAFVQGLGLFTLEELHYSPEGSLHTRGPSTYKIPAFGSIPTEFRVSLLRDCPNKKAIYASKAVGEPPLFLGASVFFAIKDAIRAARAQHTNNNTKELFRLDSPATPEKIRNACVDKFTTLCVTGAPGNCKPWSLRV

xanthine oxidase [2] = target: T1, xanthine oxidase; assay: as above; assay type: biochemical; remark: listed apart in the source

Structure (SMILES)	IC50 (xanthine oxidase [1])	IC50 (xanthine oxidase [2])
O=c1cc(-c2ccc(O[C@@H]3O[C@H](CO)[C@@H](O)[C@H](O)[C@H]3O)c(O)c2)oc2cc(O)cc(O)c12 [luteolin-4′-O-glucoside]	580 nM	
O=c1cc(-c2ccc(O)c(O)c2)oc2cc(O)cc(O)c12 [luteolin]		1500 nM
